Several values for one entry are separate records, joined by “and”; a condition that tells them apart may be missing. Equal values may be shown once. Toxic doses and inconclusive results are not listed.
Tested on: P388 leukemia ip, CD2F1 mice, survival T/C
Assay: NCI In Vivo Anticancer Drug Screen. Data for tumor model P388 Leukemia (intraperitoneal) in CD2F1 (CDF1) mice
Conditions: endpoint: median survival time, higher = longer survival
Outline: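 Mice carrying the transplanted tumor received test compound or vehicle. Survival was recorded in each group, and the value is the treated-group measurement divided by that of the vehicle-treated control group.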

[1] = dose: 12.5 mg/kg/injection, schedule: Q01DX009 (ip), vehicle: saline with Tween-80
[2] = dose: 100.0 mg/kg/injection, schedule: Q01DX009 (ip), vehicle: saline with Tween-80
[3] = dose: 50.0 mg/kg/injection, schedule: Q01DX005 (ip), vehicle: Klucel (hydroxypropylcellulose) (HPC)
[4] = dose: 100.0 mg/kg/injection, schedule: Q01DX005 (ip), vehicle: Klucel (hydroxypropylcellulose) (HPC)
[5] = dose: 200.0 mg/kg/injection, schedule: Q01DX005 (ip), vehicle: Klucel (hydroxypropylcellulose) (HPC)

CCOC(=O)C/C(C)=N\NC(=O)c1ccncc1
T/C (dose: 37.0 mg/kg/injection, schedule: Q01DX009 (ip), vehicle: saline with Tween-80): 97 % of control
T/C (dose: 75.0 mg/kg/injection, schedule: Q01DX009 (ip), vehicle: saline with Tween-80): 105 % of control
T/C (dose: 150.0 mg/kg/injection, schedule: Q01DX009 (ip), vehicle: saline with Tween-80): 106 % of control

CCn1c2ccccc2c2cc(N=Nc3ccnc4c(O)cccc34)ccc21
T/C [1]: 119 % of control
T/C (dose: 25.0 mg/kg/injection, schedule: Q01DX009 (ip), vehicle: saline with Tween-80): 117 % of control
T/C [2]: 108 % of control and 97 % of control

O=C1/C(=C/c2ccc(Br)cc2)CCc2ccccc21
T/C (dose: 50.0 mg/kg/injection, schedule: Q01DX009 (ip), vehicle: Klucel (hydroxypropylcellulose) (HPC)): 105 % of control
T/C (dose: 100.0 mg/kg/injection, schedule: Q01DX009 (ip), vehicle: Klucel (hydroxypropylcellulose) (HPC)): 111 % of control
T/C (dose: 200.0 mg/kg/injection, schedule: Q01DX009 (ip), vehicle: Klucel (hydroxypropylcellulose) (HPC)): 105 % of control

CCOC(=O)C1CN(C(=O)OCC)CCC1NC(C)=O (configuration not stated)
T/C (dose: 60.0 mg/kg/injection, schedule: Q01DX005 (ip), vehicle: Klucel (hydroxypropylcellulose) (HPC)): 102 % of control
T/C (dose: 120.0 mg/kg/injection, schedule: Q01DX005 (ip), vehicle: Klucel (hydroxypropylcellulose) (HPC)): 96 % of control
T/C (dose: 240.0 mg/kg/injection, schedule: Q01DX005 (ip), vehicle: Klucel (hydroxypropylcellulose) (HPC)): 98 % of control

N#CN=[N+]([O-])c1ccc(Br)cc1
T/C (dose: 6.25 mg/kg/injection, schedule: Q04DX003 (ip), vehicle: Klucel (hydroxypropylcellulose) (HPC)): 108 % of control
T/C (dose: 12.5 mg/kg/injection, schedule: Q04DX003 (ip), vehicle: Klucel (hydroxypropylcellulose) (HPC)): 108 % of control
T/C (dose: 25.0 mg/kg/injection, schedule: Q04DX003 (ip), vehicle: Klucel (hydroxypropylcellulose) (HPC)): 90 % of control

C[CH2][Sn]([Br])([CH2]C)[c]1c(CN(C)C)cccc1CN(C)C
T/C (dose: 3.12 mg/kg/injection, schedule: Q01DX009 (ip), vehicle: saline): 99 % of control and 100 % of control
T/C (dose: 6.25 mg/kg/injection, schedule: Q01DX009 (ip), vehicle: saline): 104 % of control and 106 % of control and 95 % of control
T/C (dose: 12.5 mg/kg/injection, schedule: Q01DX009 (ip), vehicle: saline): 100 % of control and 95 % of control
T/C (dose: 25.0 mg/kg/injection, schedule: Q01DX009 (ip), vehicle: saline): 104 % of control and 95 % of control

CCCCCCNC(N)=NCCCC(N)C(=O)O (configuration not stated)
T/C [3]: 103 % of control
T/C [4]: 102 % of control
T/C [5]: 106 % of control

COC(=O)C12OCC34C(CC5C(C)C6=CC(=O)OC6=CC5(C)C3C(O)C1O)OC(=O)C(O)C24 (configuration not stated)
T/C (dose: 0.63 mg/kg/injection, schedule: Q01DX005 (ip), vehicle: Klucel (hydroxypropylcellulose) (HPC)): 150 % of control
T/C (dose: 1.25 mg/kg/injection, schedule: Q01DX005 (ip), vehicle: Klucel (hydroxypropylcellulose) (HPC)): 169 % of control

C/C(=N/N)c1ccc(Br)cc1
T/C (dose: 6.25 mg/kg/injection, schedule: Q01DX009 (ip), vehicle: saline with Tween-80): 100 % of control
T/C [1]: 104 % of control

COc1ccc2c(c1)OC(C)(C)C=C2
T/C (dose: 8.75 mg/kg/injection, schedule: Q01DX009 (ip), vehicle: saline with Tween-80): 87 % of control
T/C (dose: 17.5 mg/kg/injection, schedule: Q01DX009 (ip), vehicle: saline with Tween-80): 98 % of control
T/C (dose: 35.0 mg/kg/injection, schedule: Q01DX009 (ip), vehicle: saline with Tween-80): 106 % of control
T/C (dose: 70.0 mg/kg/injection, schedule: Q01DX009 (ip), vehicle: saline with Tween-80): 110 % of control

Nc1nc(=S)c2[nH]c(=S)n(C3OC(CO)C(O)C3O)c2[nH]1 (configuration not stated)
T/C (dose: 25.0 mg/kg/injection, schedule: Q01DX005 (ip), vehicle: Klucel (hydroxypropylcellulose) (HPC)): 100 % of control
T/C [3]: 105 % of control
T/C [4]: 103 % of control
T/C [5]: 112 % of control

O=C1Nc2c(Cl)cc(Cl)cc2/C1=N/N=C/c1ccco1
T/C (dose: 50.0 mg/kg/injection, schedule: Q01DX005 (ip), vehicle: saline with Tween-80): 101 % of control
T/C (dose: 100.0 mg/kg/injection, schedule: Q01DX005 (ip), vehicle: saline with Tween-80): 104 % of control
T/C (dose: 200.0 mg/kg/injection, schedule: Q01DX005 (ip), vehicle: saline with Tween-80): 104 % of control

Cc1ccc(S(=O)(=O)N/N=C(\Cc2ccccc2)c2ccc(Br)cc2)cc1
T/C (dose: 50.0 mg/kg/injection, schedule: Q01DX009 (ip), vehicle: saline with Tween-80): 99 % of control
T/C [2]: 99 % of control
T/C (dose: 100.0 mg/kg/injection, schedule: Q01DX009 (ip), vehicle: saline): 98 % of control
T/C (dose: 200.0 mg/kg/injection, schedule: Q01DX009 (ip), vehicle: saline with Tween-80): 90 % of control
T/C (dose: 200.0 mg/kg/injection, schedule: Q01DX009 (ip), vehicle: saline): 98 % of control
